Earlier results on one molecule are cited in publication PMC7909736 (Pharmaceutical Research, 2021).

The structures appear in SMILES notation.

The conditions of the data set: share rate of 10 s^−1, room temperature.

For `CC(=CCCCOCC(O)CO)CCCC(C)CCCC(C)C` (stereo not shown) [Formulation C17MGE, mono-O-(5,9, 13-trimethyl-4-tetradecenyl) glycerol ester], the Viscosity is on record as 0.47 Pa·s.
